This is an account of results in ChEMBL document CHEMBL4017455, “Novel small molecule guanidine Sigma1 inhibitors for advanced prostate cancer” (Bioorg Med Chem Lett, 2017).

In one data set the target is T1, Androgen receptor (Homo sapiens, UniProt P10275).
T1 sequence (P10275 whole entry): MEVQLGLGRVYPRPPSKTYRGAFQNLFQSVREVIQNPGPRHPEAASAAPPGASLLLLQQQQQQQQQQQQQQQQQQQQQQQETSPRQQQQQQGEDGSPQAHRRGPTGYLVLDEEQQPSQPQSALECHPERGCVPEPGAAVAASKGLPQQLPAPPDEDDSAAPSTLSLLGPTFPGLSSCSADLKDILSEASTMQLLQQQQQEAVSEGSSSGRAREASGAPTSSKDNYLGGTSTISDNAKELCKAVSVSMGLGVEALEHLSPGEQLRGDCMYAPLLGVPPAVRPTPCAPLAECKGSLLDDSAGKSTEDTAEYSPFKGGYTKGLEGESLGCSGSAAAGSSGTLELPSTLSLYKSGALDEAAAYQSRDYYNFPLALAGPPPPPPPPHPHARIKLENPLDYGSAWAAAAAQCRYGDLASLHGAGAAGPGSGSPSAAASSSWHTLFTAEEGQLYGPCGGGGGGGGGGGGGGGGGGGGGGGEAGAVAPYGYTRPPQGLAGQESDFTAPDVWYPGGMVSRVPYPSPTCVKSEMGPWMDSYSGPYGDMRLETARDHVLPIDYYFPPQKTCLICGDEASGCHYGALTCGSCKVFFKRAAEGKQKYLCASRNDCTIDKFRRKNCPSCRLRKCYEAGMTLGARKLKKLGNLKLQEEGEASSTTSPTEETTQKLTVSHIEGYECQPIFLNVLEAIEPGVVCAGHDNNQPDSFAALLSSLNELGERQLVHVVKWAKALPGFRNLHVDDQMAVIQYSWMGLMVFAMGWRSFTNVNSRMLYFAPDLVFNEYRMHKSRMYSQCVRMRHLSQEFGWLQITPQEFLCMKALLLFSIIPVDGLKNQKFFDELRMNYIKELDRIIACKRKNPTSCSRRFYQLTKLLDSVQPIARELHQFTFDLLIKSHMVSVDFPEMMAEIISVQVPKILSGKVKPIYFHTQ
Description: Antagonist activity at full length human androgen receptor expressed in mammalian expression system measured after 22 to 24 hrs by luciferase reporter gene assay. In general terms: A reporter such as luciferase makes a cellular process visible.

The target of data set [1] is T2, Voltage-gated inwardly rectifying potassium channel KCNH2 (Homo sapiens, UniProt Q12809). Description: Inhibition of human ERG expressed in CHOK1 cells by Qpatch clamp method.
Data set [2] concerns the target T2, Voltage-gated inwardly rectifying potassium channel KCNH2. Description: Inhibition of human ERG.
The target of data set [3] is T3, Sigma non-opioid intracellular receptor 1 (Homo sapiens, UniProt Q99720). Kind of data set: Displacement of [3H]-(+)-pentazocine from sigma1 in human MDA-MB-468 cell membranes. A general note: In a radioligand displacement assay an active substance lowers the binding of a labelled ligand.
For data set [4], the target named is T3, Sigma non-opioid intracellular receptor 1. Kind of data set: Displacement of [125I]-IPAG from sigma1 in human MDA-MB-468 cell membranes.
The subject of data set [5] is Plasma. Kind of data set: Protein binding in human plasma. In kind it is ADME, cell-free.
In the next data set the test system is MDA-MB-468. Kind of data set: Antiproliferative activity against human MDA-MB-468 cells at 3 to 20 uM by CellTiter-Glo assay. In kind it is functional, cell-based.
The nature of data set [6]: Stability in human liver microsomes. In kind it is ADME, microsome. Conditions: read-out: Stability.
A short description of data set [7]: Stability in human plasma. In kind it is ADME, cell-free. Conditions: read-out: Stability.
Data set [8] can be described thus: Stability in mouse liver microsomes. In kind it is ADME, microsome. The note with it: read-out: Stability.
The subject of data set [9] is Plasma. Description: Protein binding in mouse plasma. It is filed as ADME, cell-free.
Data set [10] in a line: Stability in mouse plasma. Conditions: read-out: Stability. In kind it is ADME, cell-free.
A short description of data set [11]: Solubility of compound in PBS buffer at pH 7.4. It is filed as physicochemical.
Data set [12] in a line: in vivo. The note with it: Swiss, mouse, plasma, po, 30 mg/kg.
Data set [13] in a line: Half life in Swiss mouse plasma at 10 mg/kg, po.
A short description of data set [14]: in vivo. Conditions: Swiss, mouse, plasma, po, 30 mg/kg. This is another data set of the same source.
Data set [15] can be described thus: in vivo. Conditions: Swiss, mouse, plasma, po, 10 mg/kg.
Data set [16] can be described thus: Ratio of drug level in Swiss mouse brain to plasma at 10 mg/kg, ip.
A short description of data set [17]: AUC (0 to infinity) in Swiss mouse plasma at 30 mg/kg, po. It is filed as ADME, organism-based. Further details: dose 30 mg/kg, time infinity, route oral.
Data set [18] is described as follows: AUC (0 to infinity) in Swiss mouse plasma at 10 mg/kg, po. In kind it is ADME, organism-based. Further details: dose 10 mg/kg, time infinity, route oral.
The nature of data set [19]: AUC (0 to infinity) in Swiss mouse plasma at 2 mg/kg, iv. In kind it is ADME, organism-based. Details: dose 2 mg/kg, time infinity, route intravenous.
In the next data set the test system is Brain. Conditions: mouse, in vivo, ip, 10 mg/kg.
Data set [20] in a line: Clearance in Swiss mouse plasma at 2 mg/kg, iv.
Data set [21] in a line: AUC (0 to infinity) in Swiss mouse plasma at 10 mg/kg, ip. It is filed as ADME, organism-based. Further details: dose 10 mg/kg, route intraperitoneal, time infinity.
Data set [22] in a line: in vivo. The note with it: Swiss, mouse, plasma, po, 10 mg/kg. This is another data set of the same source.
The nature of data set [23]: Half life in Swiss mouse plasma at 30 mg/kg, po.
The nature of data set [24]: AUC (0 to infinity) in Swiss mouse brain at 10 mg/kg, ip. It is filed as ADME, organism-based. Further details: dose 10 mg/kg, time infinity, route intraperitoneal.
Data set [25] can be described thus: in vivo. Conditions: Swiss, mouse, plasma, po, 30 mg/kg. The source holds these as a separate data set.
Data set [26] can be described thus: Volume of distribution in Swiss mouse plasma at 2 mg/kg, iv. In kind it is ADME, organism-based.
In data set [27] the test system is Plasma. Conditions: mouse, in vivo, ip, 10 mg/kg.
Data set [28] in a line: in vivo. Conditions: Swiss, mouse, plasma, po, 10 mg/kg. This is another data set of the same source.

Molecules are shown by their SMILES. Converted amounts (≈) assume the structure as drawn. The source made the active and inactive calls. No cut-off for these calls is given here. A value given as a limit tells only on which side of the number the result lay.

T2 sequence (Q12809 whole entry): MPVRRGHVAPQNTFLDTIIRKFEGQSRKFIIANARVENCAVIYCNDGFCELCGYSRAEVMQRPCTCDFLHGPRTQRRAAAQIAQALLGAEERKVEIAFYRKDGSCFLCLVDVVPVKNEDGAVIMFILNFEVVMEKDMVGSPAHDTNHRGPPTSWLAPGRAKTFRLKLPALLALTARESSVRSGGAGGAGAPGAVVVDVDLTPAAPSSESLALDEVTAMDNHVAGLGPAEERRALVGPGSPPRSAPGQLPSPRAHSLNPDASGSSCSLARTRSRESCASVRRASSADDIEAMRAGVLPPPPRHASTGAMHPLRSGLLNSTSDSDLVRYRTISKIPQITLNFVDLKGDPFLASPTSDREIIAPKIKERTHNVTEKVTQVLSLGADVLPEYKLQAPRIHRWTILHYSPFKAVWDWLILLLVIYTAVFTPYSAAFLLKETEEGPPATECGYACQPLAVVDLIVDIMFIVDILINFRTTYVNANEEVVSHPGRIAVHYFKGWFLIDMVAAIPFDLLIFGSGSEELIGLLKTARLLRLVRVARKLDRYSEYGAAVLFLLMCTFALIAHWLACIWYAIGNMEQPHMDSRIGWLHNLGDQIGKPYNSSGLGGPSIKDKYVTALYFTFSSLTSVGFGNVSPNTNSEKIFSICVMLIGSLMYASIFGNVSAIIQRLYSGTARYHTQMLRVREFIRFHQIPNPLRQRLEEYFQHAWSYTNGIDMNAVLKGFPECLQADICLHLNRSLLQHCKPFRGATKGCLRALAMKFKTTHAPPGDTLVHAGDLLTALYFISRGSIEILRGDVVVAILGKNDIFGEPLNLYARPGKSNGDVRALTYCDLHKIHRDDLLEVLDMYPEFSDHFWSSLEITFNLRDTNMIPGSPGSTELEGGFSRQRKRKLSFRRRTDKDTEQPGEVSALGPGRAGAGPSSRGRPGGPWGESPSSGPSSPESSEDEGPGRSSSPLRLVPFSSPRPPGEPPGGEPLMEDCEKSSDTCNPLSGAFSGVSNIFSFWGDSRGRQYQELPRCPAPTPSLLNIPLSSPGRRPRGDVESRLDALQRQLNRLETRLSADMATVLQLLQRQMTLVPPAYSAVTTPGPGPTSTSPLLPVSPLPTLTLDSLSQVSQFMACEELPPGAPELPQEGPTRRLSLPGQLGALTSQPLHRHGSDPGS
T3 sequence (Q99720 whole entry): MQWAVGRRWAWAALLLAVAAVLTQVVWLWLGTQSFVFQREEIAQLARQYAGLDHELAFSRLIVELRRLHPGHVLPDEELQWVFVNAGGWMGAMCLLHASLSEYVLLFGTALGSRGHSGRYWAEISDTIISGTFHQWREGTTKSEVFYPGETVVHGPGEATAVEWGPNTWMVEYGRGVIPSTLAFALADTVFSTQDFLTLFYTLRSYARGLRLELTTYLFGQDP

The EC50 is the concentration that produces a half-maximal response. Read a high EC50 as lower potency in that assay. As usually defined, the IC50 is the concentration needed to halve the response being measured. A lower IC50 goes with higher potency. On Androgen receptor, `NC(=NC12CC3CC(CC(C3)C1)C2)Nc1ccc(I)cc1` came in with an EC50 of 9.5 to 9.75 µM. Further, the IC50 was 2.6 µM in data set [1] and 0.491 µM in data set [2].
What is called Ki is a dissociation constant, usually derived from enzyme kinetics or from competition with a known ligand. In data set [3], `N=C(NCCCOc1ccc(F)cc1)Nc1ccc(C(F)(F)F)cc1` yielded a Ki of 0.0453 µM.
Take `N=C(Nc1ccc(I)cc1)Nc1ccc(I)cc1`: the Ki in data set [4] turned out to be 0.003 µM.
In turn, `CC(=O)O[C@H]1CC[C@@]2(C)C(=CC[C@@H]3[C@@H]2CC[C@]2(C)C(c4cccnc4)=CC[C@@H]32)C1` [ABIRATERONE ACETATE] came in with an EC50 on Androgen receptor of 17 to 17.1 µM.
In turn, `N=C(NCCCOc1ccc(F)cc1)NCCCOc1ccc(F)cc1` returned an inhibition constant Ki in [4] of more than 1 µM.
For orientation: solubility means the dissolved amount per volume that the medium holds. High values mean a readily soluble substance, low ones a poorly soluble substance. Take `N=C(NCCCOc1ccc(F)cc1)Nc1ccc(I)cc1`: the PPB with Plasma [5] amounted to 96.6%; in the data set with Plasma [9] it was 97.9%. The outcome in the data set with MDA-MB-468 was Active. The half-life is more than 1.5 h in data set [6], more than 6 h in [7], 0.41 h in data set [8] and more than 6 h in data set [10]. This compound also showed a Ki in data set [3] of 0.0461 µM. The compound also gave an IC50 in [2] of 0.109 µM. Also, the solubility in [11] is 5.37 mg/mL (≈ 13 mM).
On to `COc1ccc(NC(=N)NCCCOc2ccc(F)cc2)cc1`, for which the results for the PPB with Plasma [5] and in the data set on Plasma [9] were 75.1% and 82.1%, respectively. This compound returned an EC50 at Androgen receptor of 28.1 µM. Besides, the half-life is 0.387 h in data set [6], more than 6 h in [7], 0.117 h in [8] and more than 6 h in data set [10]. The compound further registered a Ki in data set [3] of 0.0134 µM. This compound also displayed a half-maximal inhibitory concentration (IC50) in [2] of 0.417 µM. Further, the solubility in [11] was 8.45 mg/mL (≈ 26.6 mM).
As a reminder, the Cmax is the peak of the concentration-time curve. For orientation: Tmax means the time at which the peak concentration occurs. As a reminder, the AUC(0-t) is the area under the concentration-time curve up to a stated or last time point. As usually defined, the Kp is the ratio of the level in a tissue or fluid to that in plasma or blood. For orientation: AUC(0-inf) means the area under the concentration-time curve extrapolated to infinity. Low readings indicate less exposure, high ones more exposure. A word on the clearance: it is the volume of plasma or blood freed of the substance per unit of time. In general, Vd refers to a proportionality between amount in the body and measured concentration, not a real space. Low values mean little distribution into tissue, high ones wide distribution into tissue. With `N=C(NCCCOc1ccc(F)cc1)Nc1ccc(Cl)cc1`, the PPB is 93.4% with Plasma [5] and 88.8% with Plasma [9]. In addition, the EC50 on Androgen receptor is 12.7 µM. Moreover, the outcome in the data set with MDA-MB-468 was Active. The maximum concentration (Cmax) is 0.674 µM in “in vivo [12]”, 2.15 µM in the data set on Brain, 0.304 µM in “in vivo [22]” and 0.438 µM with Plasma [27]. Besides, the half-life in [13] was more than 3 h; in [6] it was more than 1.5 h; in data set [7], more than 6 h; in data set [8] it was 0.413 h; in data set [23], more than 3 h; in data set [10], more than 6 h. The Tmax in “in vivo [14]” turned out to be 1 h; in the data set “in vivo [28]”, 0.25 h. Besides, the AUC(0-t) stood at 0.119 µg·h/mL in “in vivo [15]” and 0.414 µg·h/mL in “in vivo [25]”. For the same compound, the partition ratio (Kp) in [16] is 5. Further, the AUC(0-inf) is 0.48 µg·h/mL in data set [17]; 0.141 µg·h/mL in data set [18]; 0.057 to 0.071 µg·h/mL in data set [19]; 0.166 µg·h/mL in data set [21]; 0.856 µg·h/mL in [24]. Also, the clearance in data set [20] was in the range of 28.1 to 35.2 L/h/kg. In addition, the Vd in [26] was in the range of 57.6 to 91 L/kg. Moreover, in data set [11], the solubility is 4.58 mg/mL (≈ 14.2 mM).
